Experimental data: PMC3231940, “Disposition, metabolism and mass balance of [^14C]apremilast following oral administration” (Xenobiotica; the Fate of Foreign Compounds in Biological …, 2011)
Values joined by “and” are separate entries in the source; they are usually repeats but may differ in a detail not shown here. Identical values can stand only once.

Experiments:
[1] = Metabolite profiling by HPLC radiochromatography in plasma, urine and faeces; type: in vivo, human
Method: Individual plasma samples collected from all subjects at 0.5, 1, 2.5, 8, 24, 36 and 48 h post-dose were analysed for metabolite profiling. A pooled sample (equal volume from 0.5,1,2.5,8 and 24 h) from subject 1 was also used for metabolite profiling. Three volumes of acetonitrile were added to each sample, followed by mixing and centrifu-gation. The supernatant was removed and the pellet was washed twice with acetonitrile. The combined superna-tants were evaporated to dryness under a stream of nitrogen. The residues were re-suspended in acetonitrile: 1% formic acid in water (1:1), assayed for extraction recovery and analysed for metabolite profiling.
For each subject, urine samples were pooled using an equal percentage by volume of the 0-4, 4-8, 8-12 and 12-24-h samples. The 24-48-h urine sample from each subject and a pool of the 0-168-h urine samples from subject 1 were also analysed for metabolite profiling. Samples were mixed and centrifuged prior to the supernatants being transferred to fresh tubes for metabolite profiling analysis.
Faecal homogenates for metabolite profiling were pooled using an equal percentage by weight to generate two pools (0-48 h and 48-96 h) for each subject. An additional pool (0-168 h) was prepared using the samples collected from subject 1. An aliquot (approximately 6 g) of each pool was extracted with three volumes of acetonitrile; samples were mixed and centrifuged. The supernatant was removed and the pellets were extracted twice with an additional 12 mL of acetonitrile each time. The combined supernatants were evaporated to dryness under a stream of nitrogen and the residue was re-suspended in a small volume (approximately 400 μL) of acetonitrile: 1% formic acid in water (1:1). Samples were assayed for extraction recovery prior to metabolite profiling.
HPLC analysis for metabolite profiling was performed using a Shimadzu LC-10ADVP (Shimadzu Corp., Columbia, MD) or a Waters 2695 Alliance Separation Module (Waters Corp., Milford, MA) with the autosampler set to an ambient temperature of approximately 22°C. ASPD-10A VPUV-Vis Detector or a Waters 996 Photodiode array detector set to 254 nm was used to detect UV absorbance. [^14C]Apremilast and metabolites were separated using a Phenomenex Luna C 18(2) column (150 × 4.6 mm, 3 μm; Phenomenex, Torrance, CA) equipped with a RP-18 guard column (15×3.2 mm, 7 μm) or using an ACE 3 C18 column (150 × 4.6 mm, 3 μm; Advanced Chromatography Technologies, Aberdeen, Scotland) equipped with an ACE 3 guard column (10×3mm, 3 μm). The mobile phases used were 0.4% formic acid in water; pH 3.2 with ammonium hydroxide (mobile phase A) and acetonitrile (mobile phase B). The column temperature was 30°C and the flow rate was 0.7mL/min. The linear gradient was delivered as follows: 0-5 min to 100% A; 5-20 min to 85% A; 20-30 min hold at 85% A; 30-50 min to 65% A; 50-60 min to 60% A; 60-70 min to 50% A; 70-75 min to 0% A; hold at 0% A until 80 min; return to initial conditions over 2 min.
Radioactivity profiles for excreta were determined by radiochromatography using liquid chromatography-accurate radioisotope counting stop-flow system (LC-ARC; AIM Research Company, Wilmington, DE). Radioactivity was detected using a β-Ram Radioflow detector (IN/US Systems, Brandon, FL) equipped with a 1300-μL liquid cell. Liquid scintillation cocktail and column eluate were mixed at a ratio of 2.5:1. Radioactive peaks were quantified using LC-ARC data handling software. Plasma radioactivity profiles were determined by collecting the column eluate into 96-well Deepwell LumaPlates at a rate of 0.25 min/fraction. The plates were dried and the radioactivity in each well determined using a PerkinElmer TopCount NXT Microplate Scintillation Counter. HPLC radiochromatograms were reconstructed using LC-ARC data handling software.
Pharmacokinetic data were generated by non-compartmental analysis of plasma or whole blood versus time profiles using WinNonlin (version 4.1, Enterprise Edition). […]

[2] = test system: TNF-α production by human peripheral blood mononuclear cells; assay: TNF-α production assay in LPS-stimulated PBMC; type: cell-based; settings: LPS 1 ng/mL, 16-18 h, ELISA
Method: PDE4 enzyme was isolated from U937 human monocytic cells and used for testing inhibition in a cAMP hydrolysis assay as previously described ([Schafer et al. 2010]). For the TNF-α production assay, human peripheral blood mono-nuclear cells (PBMC) were isolated from buffy coat of normal donor blood units (Blood Center of New Jersey, East Orange, NJ) by density centrifugation over Ficoll Hypaque (Pharmacia, Piscataway, NJ). Cells were cultured in RPMI 1640 (Life Technologies, Grand Island, NY) supplemented with 5% AB^+ human serum (Gemini Bio-products, Woodland, CA), 2-mM L-glutamine, 100-U/mL penicillin and 100-μg/mL streptomycin (Life Technologies). PBMC (2×10^5 cells) were plated in 96-well flat-bottom Costar tissue culture plates (Corning, NY) in duplicate. Cells were stimulated with lipopolysaccharides (LPS) (from Salmonella abortus equi; Sigma cat.no. L-1887, St.Louis, MO) at a final concentration of 1 ng/mL in the absence or presence of compounds. The compounds were dissolved in DMSO (Sigma) and subsequent dilutions were done in culture medium immediately before use. The compounds were added to cells 1 h before LPS stimulation. The cells were incubated for 16-18 h at 37°C in 5% CO2, and super-natants were then collected, diluted with culture medium and assayed for TNF-α levels by enzyme-linked immunosorbent assay (ThermoFisher, Rockford, IL). Fifty percent inhibitory concentrations (IC50) for the PDE4 enzymatic and TNF-α assay were calculated by non-linear regression analysis using Prism 5.1 (GraphPad Software). Regression curves were sigmoidal dose response curves with maximum and minimum constrained to 100% and 0%, respectively.

[3] = radiochromatography, single oral 20-mg dose, mean ± SD

Plasma (% AUC relative to TRA); share of circulating radioactivity ([1]; AUC0-t (unchanged drug or metabolite)/AUC0-48 (TRA) * 100%): 45% and 44.8%
Plasma exposure (AUC) relative to total radioactivity ([1]; based on radiochromatography): approximately 40%
% of dose excreted, faeces ([1]; faeces collected up to 96-h post-dose): 4 % of dose and 4.1 % of dose
half-life ([1]; human, plasma, radiochromatography, single oral 20-mg dose, mean ± SD, read-out: Plasma t½ (converted)): 426 ± 162 min
Tmax ([1]; male, human, plasma, radiochromatography, single oral 20-mg dose, median and range): 1.8 h
Plasma Cmax ([1]; plasma radioactivity concentrations and radiochromatography, single oral 20-mg dose, mean ± SD): 321±134 ngEq/mL
Plasma AUC0-t [1, 3]: 2455±690 ngEq*h/mL
Plasma AUC0-∞ [1, 3]: 2636±705 ngEq*h/mL
% of dose excreted, urine ([1]; urine collected up to 48-h post-dose): 2.8 % of dose
IC50 [2]: 77 nM
SMILES: CCOc1cc([C@@H](CS(C)(=O)=O)N2C(=O)c3cccc(NC(C)=O)c3C2=O)ccc1OC [Apremilast, (+)-N-[2-[(lS)-1-(3-ethoxy-4-methoxyphenyl)-2-(methylsulfonyl)ethyl]-1,3-dioxo-2,3-dihydro-lH-isoindol-4-yl]acetamide]
